Reference: US20260355165A1, “2,3,4,9-TETRAHYDRO-1H-PYRIDO[3,4-B]INDOLE DERIVATIVES AS ESTROGEN RECEPTOR MODULATORS FOR THE TREATMENT OF CANCER” (Olema Pharmaceuticals, Inc., priority 2022, published 2026)

target: T1, estrogen receptor (Homo sapiens, UniProt P03372); assay: AP assay (alkaline phosphatase activity in ECC-1 cells), agonist mode (absence of E2) and antagonist mode (presence of 500 pM E2); format: cell-based; settings: 3 days, AP activity normalized to 500 pM E2 alone, agonist and antagonist mode combined
T1 construct: endogenous in cells; host or cells: ECC-1 cells
T1 sequence (P03372 1-595): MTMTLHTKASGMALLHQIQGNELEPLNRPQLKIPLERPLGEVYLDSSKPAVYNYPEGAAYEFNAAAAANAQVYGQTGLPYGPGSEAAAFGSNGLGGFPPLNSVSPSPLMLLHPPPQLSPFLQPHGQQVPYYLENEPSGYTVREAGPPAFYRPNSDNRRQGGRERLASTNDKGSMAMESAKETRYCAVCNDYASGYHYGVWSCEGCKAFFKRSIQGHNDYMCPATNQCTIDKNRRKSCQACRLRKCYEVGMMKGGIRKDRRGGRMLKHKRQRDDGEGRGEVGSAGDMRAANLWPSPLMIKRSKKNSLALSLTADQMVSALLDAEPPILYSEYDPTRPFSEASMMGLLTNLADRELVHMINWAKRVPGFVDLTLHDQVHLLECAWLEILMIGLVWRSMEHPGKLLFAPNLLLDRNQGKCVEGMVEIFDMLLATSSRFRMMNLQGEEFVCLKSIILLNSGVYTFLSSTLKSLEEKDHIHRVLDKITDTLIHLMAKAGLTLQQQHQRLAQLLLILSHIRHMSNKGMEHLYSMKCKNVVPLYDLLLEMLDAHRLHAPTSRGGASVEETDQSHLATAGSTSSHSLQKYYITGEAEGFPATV
How it was run: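 Read-out is absorbance at 405 nm from p-nitrophenyl phosphate cleavage (40 min, 42 °C), expressed relative to 500 pM E2 alone. Compounds were applied to ECC-1 cells in hormone-depleted medium for 3 days, either alone (agonist) or alongside 500 pM E2 (antagonist).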

SMILES | Activity (estrogen receptor modulation, e.g., agonism and antagonism)
COCC1CN(Cc2cc3cc([C@@H]4c5[nH]c6ccccc6c5C[C@@H](C)N4CC(C)(C)F)ccc3[nH]2)C1 [Compound I-51, (1R,3R)-2-(2-fluoro-2-methyl-propyl)-1-[2-[[3-(methoxymethyl)azetidin-1-yl]methyl]-1H-indol-5-yl]-3-methyl-1,3,4,9-tetrahydropyrido[3,4-b]indole] | + (estrogen receptor agonism having (i) at least 80% increase in the E2-normalized signal in the AP assay (agonist mode) and (ii) no more than 80% reduction in the E2-normalized signal in the AP assay (antagonist mode))
C[C@@H]1Cc2c([nH]c3ccccc23)[C@@H](c2ccc3[nH]c(CN4CC5(CC(F)C5)C4)cc3c2)N1CC(C)(C)F [Compound I-52, (1R,3R)-1-[2-[(6-fluoro-2-azaspiro[3.3]heptan-2-yl)methyl]-1H-indol-5-yl]-2-(2-fluoro-2-methyl-propyl)-3-methyl-1,3,4,9-tetrahydropyrido[3,4-b]indole] | ++ (estrogen receptor antagonism having (i) between 10% and 80% increase in the E2-normalized signal in the AP assay (agonist mode) and (ii) between 10% and 80% reduction in the E2-normalized signal in the AP assay (antagonist mode))
C[C@@H]1Cc2c([nH]c3ccccc23)[C@@H](c2ccc3[nH]c(CN4CC5(CC(O)C5)C4)cc3c2)N1CC(C)(C)F [Compound I-53, 2-[[5-[(1R,3R)-2-(2-fluoro-2-methyl-propyl)-3-methyl-1,3,4,9-tetrahydropyrido[3,4-b]indol-1-yl]-1H-indol-2-yl]methyl]-2-azaspiro[3.3]heptan-6-ol] | + (estrogen receptor agonism having (i) at least 80% increase in the E2-normalized signal in the AP assay (agonist mode) and (ii) no more than 80% reduction in the E2-normalized signal in the AP assay (antagonist mode))
C[C@@H]1Cc2c([nH]c3ccccc23)[C@@H](c2ccc3[nH]c(CN4CC5(COC5)C4)cc3c2)N1CC(C)(C)F [Compound I-54, 6-[[5-[(1R,3R)-2-(2-fluoro-2-methyl-propyl)-3-methyl-1,3,4,9-tetrahydropyrido[3,4-b]indol-1-yl]-1H-indol-2-yl]methyl]-2-oxa-6-azaspiro[3.3]heptane] | + (estrogen receptor agonism having (i) at least 80% increase in the E2-normalized signal in the AP assay (agonist mode) and (ii) no more than 80% reduction in the E2-normalized signal in the AP assay (antagonist mode))
C[C@@H]1Cc2c([nH]c3ccccc23)[C@@H](c2ccc3cc(CN4CC(CF)C4)[nH]c3c2)N1CC(C)(C)F [Compound I-55, (1R,3R)-1-[2-[[3-(fluoromethyl)azetidin-1-yl]methyl]-1H-indol-6-yl]-2-(2-fluoro-2-methyl-propyl)-3-methyl-1,3,4,9-tetrahydropyrido[3,4-b]indole] | + (estrogen receptor agonism having (i) at least 80% increase in the E2-normalized signal in the AP assay (agonist mode) and (ii) no more than 80% reduction in the E2-normalized signal in the AP assay (antagonist mode))
C[C@@H]1Cc2c([nH]c3ccccc23)[C@@H](c2cc3ccc(CN4CC(CF)C4)cc3[nH]2)N1CC(C)(C)F [Compound I-56, (1R,3R)-1-[6-[[3-(fluoromethyl)azetidin-1-yl]methyl]-1H-indol-2-yl]-2-(2-fluoro-2-methyl-propyl)-3-methyl-1,3,4,9-tetrahydropyrido[3,4-b]indole] | + (estrogen receptor agonism having (i) at least 80% increase in the E2-normalized signal in the AP assay (agonist mode) and (ii) no more than 80% reduction in the E2-normalized signal in the AP assay (antagonist mode))
C[C@@H]1Cc2c([nH]c3ccccc23)[C@@H](c2ccc3oc(CN4CC(CF)C4)cc3c2)N1CC(C)(C)F [Compound I-57, (1R,3R)-1-[2-[[3-(fluoromethyl)azetidin-1-yl]methyl]benzofuran-5-yl]-2-(2-fluoro-2-methyl-propyl)-3-methyl-1,3,4,9-tetrahydropyrido[3,4-b]indole] | +++ (estrogen receptor antagonism (i) with pIC50 greater than 7.5 and at least a 10% reduction in the E2-normalized signal in the AP assay (antagonist mode); and (ii) no more than 10% increase in E2-normalized signal in the AP assay (agonist mode))
C[C@@H]1Cc2c([nH]c3ccccc23)[C@@H](c2ccc3oc(CN4CCC45CC(F)(F)C5)cc3c2)N1CC(C)(C)F [Compound I-58, (1R,3R)-1-[2-[(6,6-difluoro-1-azaspiro[3.3]heptan-1-yl)methyl]benzofuran-5-yl]-2-(2-fluoro-2-methyl-propyl)-3-methyl-1,3,4,9-tetrahydropyrido[3,4-b]indole] | + (estrogen receptor agonism having (i) at least 80% increase in the E2-normalized signal in the AP assay (agonist mode) and (ii) no more than 80% reduction in the E2-normalized signal in the AP assay (antagonist mode))
CC1CN(Cc2cnc3[nH]cc([C@@H]4c5[nH]c6ccccc6c5C[C@@H](C)N4CC(C)(C)F)c3c2)C1 [Compound I-59, (1R,3R)-2-(2-fluoro-2-methyl-propyl)-3-methyl-1-[5-[(3-methylazetidin-1-yl)methyl]-1H-pyrrolo[2,3-b]pyridin-3-yl]-1,3,4,9-tetrahydropyrido[3,4-b]indole] | + (estrogen receptor agonism having (i) at least 80% increase in the E2-normalized signal in the AP assay (agonist mode) and (ii) no more than 80% reduction in the E2-normalized signal in the AP assay (antagonist mode))
C[C@@H]1Cc2c([nH]c3ccccc23)[C@@H](c2c[nH]c3ncc(CN4CC(CF)C4)cc23)N1CC(C)(C)F [Compound I-60, (1R,3R)-1-[5-[[3-(fluoromethyl)azetidin-1-yl]methyl]-1H-pyrrolo[2,3-b]pyridin-3-yl]-2-(2-fluoro-2-methyl-propyl)-3-methyl-1,3,4,9-tetrahydropyrido[3,4-b]indole] | + (estrogen receptor agonism having (i) at least 80% increase in the E2-normalized signal in the AP assay (agonist mode) and (ii) no more than 80% reduction in the E2-normalized signal in the AP assay (antagonist mode))
C[C@@H]1Cc2c([nH]c3ccccc23)[C@@H](c2c[nH]c3ncc(CN4CC5CC5C4)cc23)N1CC(C)(C)F (stereo partly drawn) [Compound I-61, (1R,3R)-1-[5-(3-azabicyclo[3.1.0]hexan-3-ylmethyl)-1H-pyrrolo[2,3-b]pyridin-3-yl]-2-(2-fluoro-2-methyl-propyl)-3-methyl-1,3,4,9-tetrahydropyrido[3,4-b]indole] | + (estrogen receptor agonism having (i) at least 80% increase in the E2-normalized signal in the AP assay (agonist mode) and (ii) no more than 80% reduction in the E2-normalized signal in the AP assay (antagonist mode))
CC1CN(Cc2cc3cc([C@@H]4c5[nH]c6ccccc6c5C[C@@H](C)N4CC(C)(C)F)sc3[nH]2)C1 [Compound I-62, 2-[(1S,3R)-2-(2-fluoro-2-methyl-propyl)-3-methyl-1,3,4,9-tetrahydropyrido[3,4-b]indol-1-yl]-5-[(3-methylazetidin-1-yl)methyl]-6H-thieno[2,3-b]pyrrole] | ++ (estrogen receptor antagonism having (i) between 10% and 80% increase in the E2-normalized signal in the AP assay (agonist mode) and (ii) between 10% and 80% reduction in the E2-normalized signal in the AP assay (antagonist mode))
C[C@@H]1Cc2c([nH]c3ccccc23)[C@@H](c2cc3cc(CN4CC(CF)C4)[nH]c3s2)N1CC(C)(C)F [Compound I-63, 5-[[3-(fluoromethyl)azetidin-1-yl]methyl]-2-[(1S,3R)-2-(2-fluoro-2-methyl-propyl)-3-methyl-1,3,4,9-tetrahydropyrido[3,4-b]indol-1-yl]-6H-thieno[2,3-b]pyrrole] | ++ (estrogen receptor antagonism having (i) between 10% and 80% increase in the E2-normalized signal in the AP assay (agonist mode) and (ii) between 10% and 80% reduction in the E2-normalized signal in the AP assay (antagonist mode))
C[C@@H]1Cc2c([nH]c3ccccc23)[C@@H](c2cc3[nH]c(CN4CC(CF)C4)cc3s2)N1CC(C)(C)F [Compound I-64, 5-[[3-(fluoromethyl)azetidin-1-yl]methyl]-2-[(1S,3R)-2-(2-fluoro-2-methyl-propyl)-3-methyl-1,3,4,9-tetrahydropyrido[3,4-b]indol-1-yl]-4H-thieno[3,2-b]pyrrole] | ++ (estrogen receptor antagonism having (i) between 10% and 80% increase in the E2-normalized signal in the AP assay (agonist mode) and (ii) between 10% and 80% reduction in the E2-normalized signal in the AP assay (antagonist mode))
C[C@@H]1Cc2c([nH]c3ccccc23)[C@@H](c2cc3[nH]c(C(=O)O)cc3s2)N1CC(C)(C)F.N [Compound I-65, ammonium; 2-[(1S,3R)-2-(2-fluoro-2-methyl-propyl)-3-methyl-1,3,4,9-tetrahydropyrido[3,4-b]indol-1-yl]-4H-thieno[3,2-b]pyrrole-5-carboxylate] | ++ (estrogen receptor antagonism having (i) between 10% and 80% increase in the E2-normalized signal in the AP assay (agonist mode) and (ii) between 10% and 80% reduction in the E2-normalized signal in the AP assay (antagonist mode))
